Test results taken from PubChem BioAssay AID1963854 (Molecular Pharmacology Branch, DTP, NCI, 2024).

Test system: 186277-243-T-J2-PDC complex spheroid viability
Test: Anticancer human tumor 186277-243-T-J2-PDC patient-derived colon adenocarcinoma cell line growth inhibition [POLQ]
Details: for IC50: curve of first compound; for viability, T/C: stronger effect = lower value; active = viability on the fitted dose curve at most 10% of control; inactive = the rest
In short: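 Three-cell-type spheroids modelling solid tumor plus stroma served as the readout system; POL inhibitors were tested individually and in combination, concentration ranges set by clinical Cmax where known.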

[1] = second compound 0.0316 µM, first compound 0.00316 µM
[2] = second compound 0.0316 µM, first compound 0.01 µM
[3] = second compound 0.0316 µM, first compound 0.0316 µM
[4] = second compound 0.0316 µM, first compound 0.1 µM
[5] = second compound 0.0316 µM, first compound 0.316 µM
[6] = second compound 0.0316 µM, first compound 1 µM
[7] = second compound 0.1 µM, first compound 0.00316 µM
[8] = second compound 0.1 µM, first compound 0.01 µM
[9] = second compound 0.1 µM, first compound 0.0316 µM
[10] = second compound 0.1 µM, first compound 0.1 µM
[11] = second compound 0.1 µM, first compound 0.316 µM
[12] = second compound 0.1 µM, first compound 1 µM
[13] = second compound 0.316 µM, first compound 0.00316 µM
[14] = second compound 0.316 µM, first compound 0.01 µM
[15] = second compound 0.316 µM, first compound 0.0316 µM
[16] = second compound 0.316 µM, first compound 0.1 µM
[17] = second compound 0.316 µM, first compound 0.316 µM
[18] = second compound 0.316 µM, first compound 1 µM
[19] = second compound 1 µM, first compound 0.00316 µM
[20] = second compound 1 µM, first compound 0.01 µM
[21] = second compound 1 µM, first compound 0.0316 µM
[22] = second compound 1 µM, first compound 0.1 µM
[23] = second compound 1 µM, first compound 0.316 µM
[24] = second compound 1 µM, first compound 1 µM
[25] = second compound 3.16 µM, first compound 0.00316 µM
[26] = second compound 3.16 µM, first compound 0.01 µM
[27] = second compound 3.16 µM, first compound 0.0316 µM
[28] = second compound 3.16 µM, first compound 0.1 µM
[29] = second compound 3.16 µM, first compound 0.316 µM
[30] = second compound 3.16 µM, first compound 1 µM
[31] = second compound 10 µM, first compound 0.00316 µM
[32] = second compound 10 µM, first compound 0.01 µM
[33] = second compound 10 µM, first compound 0.0316 µM
[34] = second compound 10 µM, first compound 0.1 µM
[35] = second compound 10 µM, first compound 0.316 µM
[36] = second compound 10 µM, first compound 1 µM
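Also: spheroids exposed to compounds for seven days.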
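For viability, T/C in this document: 100% = DMSO vehicle control viability.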

COc1cccc(OCCCN)c1-c1cc(Nc2cnc(C#N)cn2)n[nH]1 + COC1C(OC(N)=O)C(O)C(Oc2ccc3c(O)c(NC(=O)c4ccc(O)c(CC=C(C)C)c4)c(=O)oc3c2C)OC1(C)C
< 3.16 nM: IC50 (second compound 0.0316 µM) | IC50 (second compound 0.1 µM) | IC50 (second compound 0.316 µM) | IC50 (second compound 1 µM) | IC50 (second compound 3.16 µM) | IC50 (second compound 10 µM)
active: viability, T/C [1] 8.14% | viability, T/C [2] 5.13% | viability, T/C [3] 4.48% | viability, T/C [4] 4.86% | viability, T/C [5] 4.49% | viability, T/C [6] 5.84% | viability, T/C [7] 9.53% | viability, T/C [8] 5.58% | viability, T/C [9] 4.93% | viability, T/C [10] 4.32% | viability, T/C [11] 4.26% | viability, T/C [12] 5.58% | viability, T/C [13] 9.04% | viability, T/C [14] 5.2% | viability, T/C [15] 5.3% | viability, T/C [16] 4.89% | viability, T/C [17] 4.61% | viability, T/C [18] 5.48% | viability, T/C [19] 8.31% | viability, T/C [20] 6.44% | viability, T/C [21] 4.79% | viability, T/C [22] 4.46% | viability, T/C [23] 4.72% | viability, T/C [24] 5.47% | viability, T/C [25] 7.66% | viability, T/C [26] 5.09% | viability, T/C [27] 4.84% | viability, T/C [28] 4.62% | viability, T/C [29] 4.32% | viability, T/C [30] 5.85% | viability, T/C [31] 6.16% | viability, T/C [32] 5.21% | viability, T/C [33] 4.7% | viability, T/C [34] 4.65% | viability, T/C [35] 5.39% | viability, T/C [36] 6.57%

CCc1c2c(nc3ccc(O)cc13)-c1cc3c(c(=O)n1C2)COC(=O)[C@]3(O)CC + Nc1ccc(C#CCN(C(=O)Cc2ncc(C(F)(F)F)cc2C(F)(F)F)c2ccc(F)cc2)nn1
inactive: viability, T/C [1] 114% | viability, T/C [2] 87.4% | viability, T/C [3] 49.6% | viability, T/C [4] 26.4% | viability, T/C [5] 20.3% | viability, T/C [6] 18.1% | viability, T/C [7] 122% | viability, T/C [8] 87.1% | viability, T/C [9] 49.9% | viability, T/C [10] 24.7% | viability, T/C [11] 20.8% | viability, T/C [12] 19.1% | viability, T/C [13] 128% | viability, T/C [14] 86.9% | viability, T/C [15] 43.2% | viability, T/C [16] 23.1% | viability, T/C [17] 22.4% | viability, T/C [18] 19.4% | viability, T/C [19] 125% | viability, T/C [20] 82.5% | viability, T/C [21] 46.8% | viability, T/C [22] 24.2% | viability, T/C [23] 20.6% | viability, T/C [24] 18.3% | viability, T/C [25] 114% | viability, T/C [26] 82.9% | viability, T/C [27] 43.5% | viability, T/C [28] 20.9% | viability, T/C [29] 18.5% | viability, T/C [30] 18.1% | viability, T/C [31] 100% | viability, T/C [32] 71.8% | viability, T/C [33] 40.2% | viability, T/C [34] 18.5% | viability, T/C [35] 17% | viability, T/C [36] 15.9%
30 nM: IC50 (second compound 0.1 µM)
25.5 nM: IC50 (second compound 3.16 µM)
26.1 nM: IC50 (second compound 0.316 µM)
27.4 nM: IC50 (second compound 1 µM)
30.9 nM: IC50 (second compound 0.0316 µM)
21.4 nM: IC50 (second compound 10 µM)
